Values after ≈ are worked out from the molar mass of the structure shown.
Legend:
Bacteroides fragilis [1] = assay: Tested for zone of inhibition against Bacteroides fragilis UC6513 (1 mg/mL, 80 microL/12.7 mm); type: functional
Clostridium perfringens [2] = assay: The compound (1 mg/mL, 80 microL/12.7 mm) was tested for zone of inhibition against Clostridium perfringens UC6509; Tr = trace; type: functional, organism-based
Mycobacterium avium = assay: The compound (1 mg/mL, 80 microL/12.7 mm) was tested for zone of inhibition against Mycobacterium avium UC159; Tr = trace; type: functional, organism-based
Staphylococcus aureus [3] = assay: Tested for zone of inhibition against Staphylococcus aureus UC3665 (1 mg/mL, 80 microL/12.7 mm); type: functional
Staphylococcus aureus [4] = assay: Tested for zone of inhibition against Staphylococcus aureus UC6685 (1 mg/mL, 80 microL/6.5 mm); type: functional
[5] = system: Staphylococcus epidermidis; assay: Tested for zone of inhibition against Staphylococcus epidermidis UC719 (1 mg/mL, 80 microL/6.5 mm); type: functional
[6] = system: Parabacteroides distasonis; assay: Tested in vitro for its antibacterial activity against Bacteroides distasonis UC6518; type: functional
Bacteroides fragilis [7] = assay: Tested in vitro for its antibacterial activity against Bacteroides fragilis UC9370 [clindamycin 1 micro g/mL]; type: functional
[8] = system: Bacteroides thetaiotaomicron; assay: Tested in vitro for its antibacterial activity against Bacteroides thetaiotaomicron UC 9014[clindamycin 2 micro g/mL]; type: functional
[9] = system: Prevotella melaninogenica; assay: Tested in vitro for its antibacterial activity against Bacteroides melaninogenicus UC 6523; type: functional
Clostridium perfringens [10] = assay: Tested in vitro for its antibacterial activity against Clostridium perfringens UC6509; type: functional
Clostridium perfringens [11] = assay: The compound (1 mg/mL, 80 microL/12.7 mm) was tested for zone of inhibition against Clostridium perfringens UC6509 (33H -, H: Hazy zone); type: functional
Fusobacterium nucleatum = assay: Tested in vitro for its antibacterial activity against Fusobacterium nucleatum UC6324; type: functional
[12] = Tested in vitro for its antibacterial activity against Peptococcus variabilis UC6320; type: functional
Cutibacterium acnes = assay: Tested in vitro for its antibacterial activity against Propionibacterium acnes UC6564; type: functional
Clostridium perfringens [13] = assay: Tested for zone of inhibition against Clostridium perfringens UC6509; type: functional
[14] = system: Staphylococcus epidermidis; assay: The compound (1 mg/mL, 80 microL/6.5 mm) was tested for zone of inhibition against Staphylococcus epidermidis UC719; Tr = trace; type: functional, organism-based
Clostridium perfringens [15] = assay: The compound (1 mg/mL, 80 microL/12.7 mm) was tested for zone of inhibition against Clostridium perfringens UC6509 (22H -, H: Hazy zone); type: functional
Bacteroides fragilis [16] = assay: The compound was tested in vitro for its antibacterial activity against Bacteroides fragilis UC9370; type: functional
[17] = system: Bacteroides thetaiotaomicron; assay: The compound was tested in vitro for its antibacterial activity against Bacteroides thetaiotaomicron UC 6360; type: functional
[18] = system: Bacteroides thetaiotaomicron; assay: The compound (1 mg/mL, 80 microL/6.5 mm) was tested for zone of inhibition against Bacteroides thetaiotaomicron UC 6360; type: functional
Escherichia coli = assay: Tested in vitro for its antibacterial activity against Escherichia coli UC9379; type: functional
Streptococcus pyogenes = assay: Tsted in vitro for its antibacterial activity against Streptococcus pyogenes UC152; type: functional
Staphylococcus aureus [19] = assay: The compound (1 mg/mL, 80 microL/12.7 mm) was tested for zone of inhibition against Staphylococcus aureus UC3665 (18H -, H: Hazy zone); type: functional
Staphylococcus aureus [20] = assay: The compound (1 mg/mL, 80 microL/6.5 mm) was tested for zone of inhibition against Staphylococcus aureus UC6685 (38H -, H: Hazy zone); type: functional
Staphylococcus aureus [21] = assay: The compound (1 mg/mL, 80 microL/6.5 mm) was tested for zone of inhibition against Staphylococcus aureus UC6685 (20H -, H: Hazy zone); type: functional
[22] = system: Staphylococcus epidermidis; assay: The compound (1 mg/mL, 80 microL/6.5 mm) was tested for zone of inhibition against Staphylococcus epidermidis UC719 (14H -, H: Hazy zone); type: functional
Staphylococcus aureus [23] = assay: The compound (1 mg/mL, 80 microL/6.5 mm) was tested for zone of inhibition against Staphylococcus aureus UC6685; Tr = trace; type: functional, organism-based
Clostridium perfringens [24] = assay: The compound (1 mg/mL, 80 microL/12.7 mm) was tested for zone of inhibition against Clostridium perfringens UC6509; type: functional
Staphylococcus aureus [25] = assay: The compound (1 mg/mL, 80 microL/6.5 mm) was tested for zone of inhibition against Staphylococcus aureus UC6685 (21H -, H: Hazy zone); type: functional
[26] = system: Staphylococcus epidermidis; assay: The compound (1 mg/mL, 80 microL/6.5 mm) was tested for zone of inhibition against Staphylococcus epidermidis UC719 (20H -, H: Hazy zone); type: functional

| Compound | Diameter of inhibition zone (Bacteroides fragilis [1]) [mm] | Diameter of inhibition zone (Staphylococcus aureus [3]) [mm] | Diameter of inhibition zone (Staphylococcus aureus [4]) [mm] | Diameter of inhibition zone [5] [mm] | MIC [6] [µg/mL] | MIC [9] [µg/mL] | MIC (Clostridium perfringens [10]) [µg/mL] | MIC (Fusobacterium nucleatum) [µg/mL] | MIC [12] [µg/mL] | MIC (Cutibacterium acnes) [µg/mL] | Diameter of inhibition zone (Clostridium perfringens [13]) [mm] | also measured |
| --- | --- | --- | --- | --- | --- | --- | --- | --- | --- | --- | --- | --- |
| CCCC(=O)OC/C(C)=C1/CN(C(=O)c2ccccc2)C1=O | 0 | 16 | 0 | 0 |  |  |  |  |  |  |  | Diameter of inhibition zone (Clostridium perfringens [2]): Trace; Diameter of inhibition zone (Mycobacterium avium): Trace |
| CCCC(=O)N1C[C@H]([C@H](C)COC(C)=O)C1=O | 78 | 0 | 0 | 0 | > 128 | 64 (≈ 265 µM) | > 128 | 64 (≈ 265 µM) | 64 (≈ 265 µM) | 32 (≈ 133 µM) |  | MIC (Bacteroides fragilis [7]): > 128 µg/mL; MIC [8]: 64 µg/mL (≈ 265 µM); Diameter of inhibition zone (Clostridium perfringens [11]): 33 mm |
| CCCC(=O)N1C/C(=C(\C)COC(C)=O)C1=O | 31 | 18 | 8 |  |  |  |  |  |  |  | 0 | Diameter of inhibition zone [14]: Trace |
| CC(=O)OC/C(C)=C1\CN(C(C)=O)C1=O | 22 | 0 | 0 | 0 |  |  |  |  |  |  |  | Diameter of inhibition zone (Clostridium perfringens [15]): 22 mm |
| CC(=O)OC[C@@H](C)[C@H]1CN(C(C)=O)C1=O | 52 | 0 | 0 |  | > 256 | 128 (≈ 600 µM) | > 256 | 128 (≈ 600 µM) | > 256 | > 256 | 36 | MIC (Bacteroides fragilis [16]): 256 µg/mL (≈ 1200 µM); MIC [17]: 128 µg/mL (≈ 600 µM); Diameter of inhibition zone [18]: 0 mm; MIC (Escherichia coli): > 512 µg/mL; MIC (Streptococcus pyogenes): > 512 µg/mL |
| CCCC(=O)OC[C@@H](C)[C@H]1CN(C(=O)c2ccccc2)C1=O | 24 |  | 0 | 0 |  |  |  |  |  |  |  | Diameter of inhibition zone (Clostridium perfringens [11]): 33 mm; Diameter of inhibition zone (Staphylococcus aureus [19]): 18 mm |
| CCCCCC(=O)N1C[C@H]([C@H](C)CF)C1=O |  | 48 |  | 31 |  |  |  |  |  |  | 79 | Diameter of inhibition zone (Staphylococcus aureus [20]): 38 mm |
| CCCCCC(=O)N1C/C(=C(/C)CO)C1=O | 27 | 0 | 0 | 0 |  |  |  |  |  |  | 28 | Diameter of inhibition zone (Mycobacterium avium): Trace |
| COCCOC(=O)N1C/C(=C(\C)CN=[N+]=[N-])C1=O | 0 | 26 |  |  |  |  |  |  |  |  | 20 | Diameter of inhibition zone (Staphylococcus aureus [21]): 20 mm; Diameter of inhibition zone [22]: 14 mm |
| CCC[C@@H]1C[C@@H](C(=O)N[C@@H]([C@H]2O[C@H](SC)[C@H](O)[C@@H](O)[C@H]2O)[C@H](C)Cl)N(C)C1 [CLINDAMYCIN] | 30 | 0 | 0 | 22 | < 0.12 | < 0.12 | < 0.12 | < 0.12 | 1 (≈ 2.35 µM) | < 0.12 | 24 | MIC (Bacteroides fragilis [7]): < 0.12 µg/mL; MIC [8]: 4 µg/mL (≈ 9.41 µM); Diameter of inhibition zone (Mycobacterium avium): Trace |
| CCCCCC(=O)N1C[C@H]([C@H](C)CNC(C)=O)C1=O | 76 | 19 |  |  |  |  |  |  |  |  |  | Diameter of inhibition zone (Staphylococcus aureus [23]): Trace; Diameter of inhibition zone [14]: Trace |
| CCCCCC(=O)N1C/C(=C(\C)Cn2nnc(C(=O)OC)c2C(=O)OC)C1=O | 17 | 0 |  | 0 |  |  |  |  |  |  | 0 | Diameter of inhibition zone (Staphylococcus aureus [23]): Trace |
| CCCC(=O)OC/C(C)=C1\CN(C(=O)CCC)C1=O | 25 | 0 | 0 | 0 |  |  |  |  |  |  |  | Diameter of inhibition zone (Clostridium perfringens [24]): 30 mm |
| CCCC(=O)OC[C@H](C)[C@H]1CN(C(=O)CCC)C1=O | 41 | 0 |  |  | 256 (≈ 950 µM) | 64 (≈ 238 µM) | > 256 | 256 (≈ 950 µM) | 256 (≈ 950 µM) | 64 (≈ 238 µM) | 33 | MIC (Bacteroides fragilis [7]): 256 µg/mL (≈ 950 µM); MIC [8]: 128 µg/mL (≈ 475 µM); Diameter of inhibition zone (Staphylococcus aureus [23]): Trace; Diameter of inhibition zone [22]: 14 mm |
| CCCC(=O)OC[C@@H](C)[C@H]1CN(C(=O)CCC)C1=O |  | 28 |  |  | 128 (≈ 475 µM) | 8 (≈ 29.7 µM) | 128 (≈ 475 µM) | 64 (≈ 238 µM) | 256 (≈ 950 µM) | 8 (≈ 29.7 µM) | 63 | MIC (Bacteroides fragilis [7]): 64 µg/mL (≈ 238 µM); MIC [8]: 32 µg/mL (≈ 119 µM); MIC (Escherichia coli): > 160 µg/mL; MIC (Streptococcus pyogenes): > 160 µg/mL; Diameter of inhibition zone (Staphylococcus aureus [25]): 21 mm; Diameter of inhibition zone [26]: 20 mm |

Reference: ChEMBL document CHEMBL1150488 (1993)
